Reference: US20230167479A1, “RESEARCH INTO ANTIMICROBIAL RESISTANCE BY THE FIELD FLOW FRACTIONATION TECHNIQUE” (UNIVERSITÉ DE LIMOGES, priority 2020, published 2023)
In brackets after ≈: the same amount, converted by molar mass.

Legend:
Format in all cases: cell-based
[1] = tested on: E. coli strain ATCC 25922; assay: SdFFF elution-profile sensitivity test, protocol of Example 2 / FIG. 4; settings: for percentage of variation in the retention factor PΔR: sensitive strain, 4 mg/ml ampicillin vs control, significance threshold 10%
Protocol: (§1) The results of the antimicrobial resistance analysis are expected starting 18-26 hours after the sample was cultured on agar.
(§2) The field-flow fractionation device is set according to patent EP1679124. The device comprises an injection system where the sample is taken, the tubing bringing the sample from the injector to the separation channel via a first rotary joint, the separation channel contained in a centrifugation bowl, the rotation of which is ensured by an electric motor itself controlled manually or via a suitable computer device, thus allowing control of the intensity of the multigravitational field, the tubing bringing the separated species from the channel to the detector via the second rotary joint, and finally the detector.
(§3) Bacterial colonies were incubated in a Mueller-Hinton (MH) culture medium with an inoculum of 0.5 McFarland in the absence or in the presence of antibiotic, for 2 hours at 37° C. and under stirring. The liquid medium MH is the reference medium used for the reference method for determining MIC values, called the dilution method in a liquid medium.
(§4) After incubation for 2 h, the culture medium was centrifuged and then taken up in a volume of 0.5 ml of PBS.
(§5) According to the handlings shown in FIG. 5, the calculation of the percentage of variation in the retention factor or PΔR is carried out as follows: ?
(§6) Example 2: A new analysis protocol was established according to FIG. 4, consistent with the clinical implementation of conventional antibiograms, making it possible to reduce to 26 hours post-sampling/isolating the time for obtaining the test results.
(§7) Thus, such assays were carried out directly on bacterial suspensions, obtained from colonies of the E. coli strain ATCC 25922 and ATCC 35218 cultured for 16-24 hours on agar medium, and incubated for 2 hours in the presence or in the absence of antibiotic (Ampicillin, FIGS. 5A/B).

[2] = tested on: E. coli strain ATCC 35218; assay: as above; settings: for percentage of variation in the retention factor PΔR: resistant strain, 4 mg/ml ampicillin vs control, significance threshold 10%
Protocol: as §1, §2, §3, §4, §5, §6, §7

[3] = tested on: E. coli strain ATCC 25922; assay: SdFFF elution-profile sensitivity test, protocol of Example 1 / FIG. 1; settings: significance threshold 10%
Protocol: The results of the antimicrobial resistance analysis are expected starting 40 hours after the sample was cultured on agar.
as §2, §3, §4
Example 1: Results of resistance tests of the E. coli strain ATCC 25922 to various molecules, using SdFFF according to the present invention. […]

E. coli ATCC EC 25922 = assay: minimum inhibitory concentration; settings: Escherichia coli, ATCCEC25922; concentration said to correspond to the MIC
[4] = 4 mg/ml ampicillin, PΔR compared with 10% threshold

Question: `CC1(C)S[C@@H]2[C@H](NC(=O)[C@H](N)c3ccccc3)C(=O)N2[C@H]1C(=O)O` [ampicillin, Ampicillin] was tested. Which “sensitivity/resistance of the strain to the antimicrobial” value [1, 4] did it give?
Answer: Its value is “sensitive”.

Question: What about the “percentage of variation in the retention factor PΔR” value [1] of the same compound?
Answer: The value was 12.70%.

Question: What about the “percentage of variation in the retention factor PΔR” value ([1]; listed as Ampicillin) of the same compound?
Answer: Its value is “≈ 13%”.

Question: And the “sensitivity/resistance of the strain to the antimicrobial” value [2, 4]?
Answer: Its value is “resistant”.

Question: What about the PΔR ([2]; resistant strain incubated with 8 mg/ml ampicillin) of the same compound?
Answer: The PΔR was “≈ 7%”.

Question: And the “percentage of variation in the retention factor PΔR” value [2]?
Answer: Its value is 4.50%.

Question: What about the “percentage of variation in the retention factor PΔR” value ([2]; listed as Ampicillin) of the same compound?
Answer: The value was “≈ 5%”.

Question: `CN(C)[C@@H]1C(O)=C(C(N)=O)C(=O)[C@@]2(O)C(O)=C3C(=O)c4c(O)ccc(Cl)c4[C@@](C)(O)[C@H]3C[C@@H]12` [chlortetracycline, Chlortetracycline] was tested. Which PΔR ([3]; 0.03 µg/ml chlortetracycline vs control) did it give?
Answer: Its PΔR is 22%.

Question: And the MIC (E. coli ATCC EC 25922)?
Answer: Its MIC is 0.03 µg/mL (≈ 0.0626 µM).

Question: With `NC[C@H]1O[C@H](O[C@H]2[C@H](O)[C@@H](O[C@H]3O[C@H](CO)[C@@H](O)[C@H](N)[C@H]3O)[C@H](N)C[C@@H]2N)[C@H](O)[C@@H](O)[C@@H]1O` [kanamycin] as the compound, how does the “percentage of variation in the retention factor PΔR” value ([3]; 3 µg/ml of kanamycin vs control) read?
Answer: The value was 11.2%.

Question: What about the MIC (E. coli ATCC EC 25922) of the same compound?
Answer: The MIC was 3 µg/mL (≈ 6.19 µM).
